Key:
Format in all cases: in vivo
[1] = system: giant foxtail (Setaria faberii); assay: Test A preemergence; settings: Setaria faberi, pre-emergence, 240 h, read-out: Plant response rating, Foxtail, Giant; for pest or weed control at 125 g/ha: 125 g ai/ha, visual rating after approx. 10 d, 0 to 100 scale where 0 is no effect and 100 is complete control
Procedure, shortened: (§1)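 Seeds sprayed preemergence with a directed soil spray, or plants at 2 to 10 cm height and one- to two-leaf stage sprayed postemergence, with test chemicals in a non-phytotoxic solvent mixture containing surfactant, in loam soil–sand blend. Injury rated visually against untreated controls after about 10 d in greenhouse, 0 (no effect) to 100 (complete control).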

[2] = system: barnyardgrass (Echinochloa crus-galli); assay: Test A preemergence; settings: Echinochloa crus-galli, pre-emergence, 240 h, read-out: Plant response rating, Barnyardgrass; for pest or weed control at 125 g/ha: 125 g ai/ha, visual rating after approx. 10 d, 0 to 100 scale where 0 is no effect and 100 is complete control
Procedure, shortened: as §1

[3] = system: ryegrass, Italian (Italian ryegrass, Lolium multiflorum); assay: Test A preemergence; settings: Lolium multiflorum, pre-emergence, 240 h, read-out: Plant response rating, Ryegrass, Italian; for pest or weed control at 125 g/ha: 125 g ai/ha, visual rating after approx. 10 d, 0 to 100 scale where 0 is no effect and 100 is complete control
Procedure, shortened: as §1

[4] = system: ragweed (common ragweed, Ambrosia elatior); assay: Test A preemergence; settings: Ambrosia artemisiifolia, pre-emergence, 240 h, read-out: Plant response rating, Ragweed; for pest or weed control at 125 g/ha: 125 g ai/ha, visual rating after approx. 10 d, 0 to 100 scale where 0 is no effect and 100 is complete control
Procedure, shortened: as §1

[5] = system: pigweed (Amaranthus retroflexus); assay: Test A preemergence; settings: Amaranthus retroflexus, pre-emergence, 240 h, read-out: Plant response rating, Pigweed; for pest or weed control at 125 g/ha: 125 g ai/ha, visual rating after approx. 10 d, 0 to 100 scale where 0 is no effect and 100 is complete control
Kochia (Kochia scoparia) [6] = assay: Test A preemergence; settings: Bassia scoparia, pre-emergence, 240 h, read-out: Plant response rating, Kochia; for pest or weed control at 125 g/ha: 125 g ai/ha, visual rating after approx. 10 d, 0 to 100 scale where 0 is no effect and 100 is complete control
Procedure, shortened: as §1

[7] = system: giant foxtail (Setaria faberii); assay: Test A postemergence; settings: Setaria faberi, post-emergence, 240 h, read-out: Plant response rating, Foxtail, Giant; for pest or weed control at 125 g/ha: 125 g ai/ha, postemergence, visual injury after approximately 10 d, 0 to 100 scale (0 no effect, 100 complete control)
Procedure, shortened: as §1

[8] = system: barnyardgrass (Echinochloa crus-galli); assay: Test A postemergence; settings: Echinochloa crus-galli, post-emergence, 240 h, read-out: Plant response rating, Barnyardgrass; for pest or weed control at 125 g/ha: 125 g ai/ha, postemergence, visual injury after approximately 10 d, 0 to 100 scale (0 no effect, 100 complete control)
Procedure, shortened: as §1

[9] = system: ryegrass, Italian (Italian ryegrass, Lolium multiflorum); assay: Test A postemergence; settings: Lolium multiflorum, post-emergence, 240 h, read-out: Plant response rating, Ryegrass, Italian; for pest or weed control at 125 g/ha: 125 g ai/ha, postemergence, visual injury after approximately 10 d, 0 to 100 scale (0 no effect, 100 complete control)
Procedure, shortened: as §1

corn (Zea mays) = assay: Test A postemergence; settings: Zea mays, post-emergence, 240 h; for Corn plant response rating (crop injury, 0 = no effect, 100 = complete kill) at 125 g/ha: 125 g ai/ha, postemergence, visual injury after approximately 10 d, 0 to 100 scale (0 no effect, 100 complete control)
Procedure, shortened: as §1

[10] = system: ragweed (common ragweed, Ambrosia elatior); assay: Test A postemergence; settings: Ambrosia artemisiifolia, post-emergence, 240 h, read-out: Plant response rating, Ragweed; for pest or weed control at 125 g/ha: 125 g ai/ha, postemergence, visual injury after approximately 10 d, 0 to 100 scale (0 no effect, 100 complete control)
Procedure, shortened: as §1

[11] = system: wheat (Triticum aestivum); assay: Test A postemergence; settings: Triticum aestivum, post-emergence, 240 h, read-out: Plant response rating, Wheat
Procedure, shortened: as §1

[12] = system: pigweed (Amaranthus retroflexus); assay: Test A postemergence; settings: Amaranthus retroflexus, post-emergence, 240 h, read-out: Plant response rating, Pigweed; for pest or weed control at 125 g/ha: 125 g ai/ha, postemergence, visual injury after approximately 10 d, 0 to 100 scale (0 no effect, 100 complete control)
Procedure, shortened: as §1

Kochia (Kochia scoparia) [13] = assay: Test A postemergence; settings: Bassia scoparia, post-emergence, 240 h, read-out: Plant response rating, Kochia; for pest or weed control at 125 g/ha: 125 g ai/ha, postemergence, visual injury after approximately 10 d, 0 to 100 scale (0 no effect, 100 complete control)
Procedure, shortened: as §1

[14] = system: Galium (catchweed bedstraw, Galium aparine); assay: Test A postemergence; settings: Galium, post-emergence, 240 h, read-out: Plant response rating, Galium; for pest or weed control at 125 g/ha: 125 g ai/ha, postemergence, visual injury after approximately 10 d, 0 to 100 scale (0 no effect, 100 complete control)
Procedure, shortened: as §1

[15] = Preemergence, 31 g ai/ha, 0 to 100 scale (0 no effect, 100 complete control)
[16] = Postemergence, 31 g ai/ha, visual injury after approx. 10 d, 0 to 100 scale, 0 no effect, 100 complete control
[17] = 500 g ai/ha, preemergence, 0 to 100 scale, 0 = no effect, 100 = complete control

`Cc1cc(F)cc([C@H]2CN(C)C(=O)[C@@H]2C(=O)Nc2ccc(F)c(F)c2F)c1` [Compound 801] was tested, and the pest or weed control at 125 g/ha ([1]; preemergence) was 90%, the pest or weed control at 31 g/ha [1, 15] was 80% and the pest or weed control at 125 g/ha ([2]; preemergence) was 90%. It also gave a pest or weed control at 31 g/ha [2, 15] of 80%, a pest or weed control at 125 g/ha ([3]; preemergence) of 20% and a pest or weed control at 31 g/ha [3, 15] of 0%. The pest or weed control at 125 g/ha ([4]; preemergence) was 60%, the pest or weed control at 31 g/ha [4, 15] was 20% and the pest or weed control at 125 g/ha ([5]; preemergence) was 30%. The pest or weed control at 31 g/ha [5, 15] was 30%, the pest or weed control at 125 g/ha (Kochia (Kochia scoparia) [6]; preemergence) was 70% and the pest or weed control at 31 g/ha (Kochia (Kochia scoparia) [6]; [15]) was 40%. The pest or weed control at 125 g/ha [7] was 90%, the pest or weed control at 31 g/ha [7, 16] was 70% and the pest or weed control at 125 g/ha [8] was 90%. For the same compound, the pest or weed control at 31 g/ha [8, 16] was 80%, the pest or weed control at 125 g/ha [9] was 60% and the pest or weed control at 31 g/ha [9, 16] was 0%. It also gave a Corn plant response rating (crop injury, 0 = no effect, 100 = complete kill) at 125 g/ha (corn (Zea mays)) of 60%, a Corn plant response rating (crop injury, 0 = no effect, 100 = complete kill) at 31 g/ha (corn (Zea mays); [16]) of 20% and a pest or weed control at 125 g/ha [10] of 50%. The pest or weed control at 31 g/ha [10, 16] was 0%, the plant injury at 31 g/ha [11, 16] was 0% and the pest or weed control at 125 g/ha [12] was 30%. For the same compound, the pest or weed control at 31 g/ha [12, 16] was 30%, the pest or weed control at 125 g/ha (Kochia (Kochia scoparia) [13]) was 40% and the pest or weed control at 31 g/ha (Kochia (Kochia scoparia) [13]; [16]) was 20%. The pest or weed control at 125 g/ha [14] was 60% and the pest or weed control at 31 g/ha [14, 16] was 30%.

Compound `CN1C[C@H](c2ccc3c(c2)CCC3)[C@@H](C(=O)Nc2cccc(F)c2F)C1=O` [Compound 743] has a pest or weed control at 125 g/ha ([1]; preemergence) of 90%, a pest or weed control at 500 g/ha [1, 17] of 90% and a pest or weed control at 125 g/ha ([2]; preemergence) of 90%. It also gave a pest or weed control at 500 g/ha [2, 17] of 90%, a pest or weed control at 125 g/ha ([3]; preemergence) of 90% and a pest or weed control at 500 g/ha [3, 17] of 90%. It also gave a pest or weed control at 125 g/ha ([4]; preemergence) of 0%, a pest or weed control at 500 g/ha [4, 17] of 40% and a pest or weed control at 125 g/ha ([5]; preemergence) of 0%. For the same compound, the pest or weed control at 500 g/ha [5, 17] was 20%, the pest or weed control at 125 g/ha (Kochia (Kochia scoparia) [6]; preemergence) was 60% and the pest or weed control at 500 g/ha (Kochia (Kochia scoparia) [6]; [17]) was 80%. For the same compound, the pest or weed control at 125 g/ha [7] was 90%, the pest or weed control at 125 g/ha [8] was 90% and the pest or weed control at 125 g/ha [9] was 40%. It also gave a Corn plant response rating (crop injury, 0 = no effect, 100 = complete kill) at 125 g/ha (corn (Zea mays)) of 60%, a pest or weed control at 125 g/ha [10] of 0% and a plant injury at 125 g/ha ([11]; 125 g ai/ha, postemergence, visual injury after approximately 10 d, 0 to 100 scale (0 no effect, 100 complete control)) of 50%. For the same compound, the pest or weed control at 125 g/ha [12] was 0%, the pest or weed control at 125 g/ha (Kochia (Kochia scoparia) [13]) was 30% and the pest or weed control at 125 g/ha [14] was 50%.

Source: patent US12077503B2, “Substituted cyclic amides and their use as herbicides” (FMC CORPORATION, priority 2015, dated 2024)
